This is an account of results in paper PMC2913396 (Molecular Systems Biology, 2010).

“Also recorded” adds a separate entry of the source.

One series relates to Huh-7 cells. The experiment in a line: host proliferation counterscreen measuring cellular ATP levels. In kind it is cell-based, human. As to conditions: 48 h. (A counterscreen serves to expose hits that act by an unwanted route or on another target.)
Another series deals with HMGCR. The series can be described thus: HMGCR protein expression by western blot. In kind it is cell-based, human. To be noted: Huh-7 cells, 16 h.
In series [1] the test system is HCV replicon RNA in Huh-luc/neo-ET cells. The experiment in a line: replicon RNA copy number by quantitative RT-PCR. In kind it is cell-based, hepatitis C virus. As to conditions: 72 h, normalized to total RNA. (In general: A replicon is a self-replicating genome or part of one, used to study replication in cells.)
Series [2] concerns HCV genotype 1b subgenomic replicon in Huh-luc/neo-ET cells. The experiment in a line: cHTS luciferase assay. Format: cell-based, hepatitis C virus. As to conditions: for effect on replicon replication (in words): single agent, 48 h luciferase.
For series [3] the following is noted: ref Pyrah et al, 2001; Cenedella et al, 2004; cited from earlier work.

On to `CC(C)N1CCN(c2ccc(OCC3COC(Cn4cncn4)(c4ccc(Cl)cc4Cl)O3)cc2)CC1` (stereo not shown) [Terconazole], for which, in the series on Huh-7 cells, the “effect on host cell ATP levels (in words)” value is “reduce host cell ATP levels”.
As to `CCCCCCCCCCCCCCOc1ccc(C(=O)O)o1` [TOFA], the “effect on host cell ATP levels (in words)” value in the series with Huh-7 cells is given as “modest depletion of ATP at most antiviral concentrations”.
Consider `C=C(CC[C@]12O[C@H](C(=O)O)[C@@](O)(C(=O)O)[C@](C(=O)O)(O1)[C@H](OC(=O)/C=C/[C@@H](C)C[C@@H](C)CC)[C@H]2O)[C@@H](OC(C)=O)[C@H](C)Cc1ccccc1` [Squalestatin], for which the “HMGCR protein expression (in words)” value in the series with HMGCR is recorded as “overexpression of HMGCR”. Moreover, the “replicon RNA copy number, RT-qPCR (in words)” value in series [1] is given as “proviral effects”. Moreover, the “effect on replicon replication (in words)” value in series [2] is recorded as “strongly promoted replicon replication”.
In the case of `NCCCC(O)(P(=O)(O)O)P(=O)(O)O` [Alendronate], the “effect on host cell ATP levels (in words)” value in the series with Huh-7 cells is on record as “reduce host cell ATP levels”.
On to `CCC(C)(C)C(=O)O[C@H]1C[C@@H](C)C=C2C=C[C@H](C)[C@H](CC[C@@H]3C[C@@H](O)CC(=O)O3)[C@H]21` [Simvastatin], for which the “HMGCR protein expression (in words)” value in the series on HMGCR is on record as “apparent overexpression of HMGCR”. Besides, the “effect on host cell ATP levels (in words)” value in the series on Huh-7 cells is given as “correlate with a reduction in host cell ATP levels”. Besides, in series [1], the “replicon RNA copy number, RT-qPCR (in words)” value was “proviral effects”. For the same molecule, in series [2], the “effect on replicon replication (in words)” value is on record as “proviral effect; also recorded: increased HCV replication”.
As to `CC(Cc1ccc(C(C)(C)C)cc1)CN1C[C@@H](C)O[C@@H](C)C1` (stereo partly shown) [Fenpropimorph], the “effect on replicon replication (in words)” value in series [2] was “inhibited HCV replication with marginal impact on host cell ATP levels”.
In the case of `CCN(CC)CCO[C@H]1CC[C@@]2(C)C(=CC[C@@H]3[C@@H]2CC[C@]2(C)C(=O)CC[C@@H]32)C1.Cl` [U18666A], the “HMGCR protein expression (in words)” value in the series on HMGCR was “overexpression of HMGCR”. For the same molecule, in series [3], the side effects result was “rapid induction of cataracts and irreversible lens damage in animals”. The “IC50 of HCV replication inhibition (in words)” value in series [2] (48 h) is reported as “nM range”. The “effect on replicon replication (in words)” value in series [2] is “inhibited HCV replication with marginal impact on host cell ATP levels”.
Consider `COC(=O)[C@H](CC(C)C)NC(=O)c1ccc(NC[C@@H](N)CS)cc1-c1ccccc1` [GGTI-286], for which the “effect on replicon replication (in words)” value in series [2] is reported as “antiviral activity”.
On to `CCN(CC)CCOc1ccc(C(=C(Cl)c2ccccc2)c2ccccc2)cc1` [Clomiphene], for which the “effect on host cell ATP levels (in words)” value in the series on Huh-7 cells is given as “reduce host cell ATP levels”.
In the case of `CC(C)=CCC/C(C)=C/CC/C(C)=C/CO` [Farnesol], the “effect on replicon replication (in words)” value in series [2] was “strongly promoted replicon replication”.
Consider `CC(C)CCC[C@@H](C)[C@H]1CC(=O)C2=C3CC[C@H]4C[C@@H](O)CC[C@]4(C)[C@H]3CC[C@@]21C` [Colestolone], for which the “effect on replicon replication (in words)” value in series [2] is recorded as “inhibited HCV replication with marginal impact on host cell ATP levels”.
Take `CC(C)n1c(/C=C/C(O)CC(O)CC(=O)O)c(-c2ccc(F)cc2)c2ccccc21` (stereo not shown) [fluvastatin]: the “effect on replicon replication (in words)” value in series [2] was “proviral effect”.
For `CCOP(=O)(OCC)C(=Cc1cc(C(C)(C)C)c(O)c(C(C)(C)C)c1)P(=O)(OCC)OCC` [SR-12813], in series [2], the “effect on replicon replication (in words)” value is “strongly promoted replicon replication”.
Same read-out and setting: for `CCC(C)(C)c1ccc(CC(C)CN2C[C@@H](C)O[C@@H](C)C2)cc1` (stereo partly shown) [Amorolfine] the value was “inhibited HCV replication with marginal impact on host cell ATP levels”.
